`O=[N+]([O-])c1ccccc1Nc1ccccc1F`: the melting point (in general, the temperature of the solid-liquid transition) was 58 to 59 °C.
For `CCCCCCC(Oc1ccc(C2=CCCCC2)cc1)C(=O)O` (stereo not drawn) the value was 70 to 71 °C; for `O=C1c2ccccc2-n2c1nc1ccc(Br)cc1c2=O`, 315 to 316 °C; for `CCOc1cc(CN2CCN(c3ccc(C(=O)NC)cc3)CC2)cc2c1OC(C)C(=O)N2` (stereo not drawn), 228 to 233 °C.
On to `COC(=O)C(=Cc1cc(OC)cc(OC)c1)c1ccc(Oc2ccc(CO)cc2)cc1`, for which the melting point was in the range of 93 to 95 °C.
For `O=c1[nH]c(=O)n(CCCCN2CCC(OC(c3ccccc3)c3ccccc3)CC2)c2ccccc12` the value was 131 to 133 °C; for `CCCNc1nc(N)nc2c1ncn2C1CC(F)C(CO)O1` (stereo not drawn), 153 °C.
For `Cc1nc(N2CCN(Cc3ccc(F)cc3)C2=O)sc1C(=O)NCc1csc(C(C)C)n1` the value was 170 to 172 °C; for `NC(=O)c1ccc2[nH]cc(CCN3C(=O)c4ccccc4C3=O)c2c1`, 254 to 256 °C.
Regarding `CN1Cc2cc(F)ccc2-n2c(c(C#CC(C)(O)C3CC3)[nH]c2=O)C1` (stereo not drawn), the melting point fell in the range of 191 to 192 °C.
As for `O=C(Nc1ccc(OC(F)(F)F)cc1)NC1CCN(C(=O)c2cc(O)c(O)c(O)c2)CC1`, the melting point is 168 to 175 °C.
Take `COc1cc(OC)nc(NC(=O)NS(=O)(=O)c2ccccc2-c2nccn2C)n1`: the melting point lay within 182 to 183 °C.
For `O=C(CBr)CC(=O)Nc1cccc(C(F)(F)F)c1` the value was 66 to 68 °C.
Molecule `Nc1n[nH]c2c(F)cccc12` displayed a melting point of 170 °C.
For `CCCCCCCCCCCC(=O)Nc1cc([N+](=O)[O-])ccc1F` the value was 75 to 77 °C; for `COc1cc(CC(CO)NC(=O)c2ccccc2)cc(OC)c1` (stereo not drawn), 117 to 118 °C; for `Fc1ccccc1-c1cccc2[nH]c3c(c12)CCN(Cc1ccccc1)CC3`, 157 to 159 °C.
Then `COC(=O)CC(=O)Nc1ccc(C2=NNC(=O)CC2C)cc1` (stereo not drawn), with 228 to 230 °C; and `Cc1ccsc1C(=O)c1sc(Nc2ccc(N3CCN(C)CC3)cc2)nc1N`, with 237 to 238 °C; and `COc1ccc(CC(Br)C(N)=O)cc1C(=O)NCc1ccc(C(F)(F)F)cc1` (stereo not drawn), with 192 to 193 °C.
Then `Cc1c(SCCN2CCOCC2)ccnc1CSc1nc2ccccc2n1CC(N)=O`, with 178 to 180 °C.
In turn, `O=C(OCc1cccc(Cl)c1)c1ncn2c1[C@@H]1CCCN1C(=O)c1c(Cl)cccc1-2` had a melting point of 114 to 116 °C.
For `CCCCC1(CC)CSc2ccccc2N(c2ccccc2)C1=O` (stereo not drawn) the value was 90 °C.
Then `O=C1C(=O)N(C(c2ccccc2)(c2ccccc2)c2ccccc2)CCN1Cc1cc(=O)c(OCc2ccccc2)cn1Cc1ccccc1`, with 165 to 168 °C; and `Cc1cccc([N+](=O)[O-])c1-c1c(C)cccc1[N+](=O)[O-]`, with 107 to 108 °C.
For `CC(=O)[C@@H]1C[C@H](C(=O)OC(C)(C)C)N(C(=O)CNC(=O)Nc2cccc(C)c2)[C@@H]1c1ccccc1` (racemic) the value was 100 °C; for `CS(=O)(=O)c1ccc(SC2SCC(O)C(O)C2O)cc1` (stereo not drawn), 169 to 172 °C; for `O=C(Nc1cccc(C(=O)O)c1)OCc1cn(-c2cc3cc(C(=O)O)c(=O)[nH]c3cc2[N+](=O)[O-])cn1`, more than 300 °C.
With `CC1=NCCn2cccc21`, the melting point lay in the range of 25 to 27 °C.
The molecule `CC(=O)Nc1ccc(Nc2ccccc2)cc1` displayed a melting point of 169 to 171 °C.
For `CC(Oc1cc(O)ccn1)C(F)(F)F` (stereo not drawn) the value was 67 to 69 °C.
Then `N#Cc1cncc(I)c1Cl`, with 120 to 122 °C.
For `COc1ccc(CCNC(=O)c2ccc3n2Cc2ccccc2N(C(=O)c2ccc(-c4ccccc4C)c(C)c2)C3)cc1OC` the value was 130 to 136 °C; for `CCOC(=O)C(=CNc1nc(C)c(C)s1)C(=O)OCC`, 82 to 83.5 °C; for `CCOC(=O)c1cc2c(OCC(O)CNC(C)(C)C)cc(C)cc2[nH]1` (stereo not drawn), 181 to 183 °C.
Molecule `Cc1ccc(C2CCN(c3c(C)c(C)c4c(c3C)[C@@H](c3ccc(C)cc3)C(C)(C)O4)CC2)cc1` came in with a melting point of 165 to 167 °C.
For `CC(Cl)(Cl)C(NC(=O)c1cccc(Cl)c1)NC(=N[N+](=O)[O-])Nc1cccnc1` (stereo not drawn) the value was 160 to 161 °C; for `CCCC(=O)Nc1n[nH]c2cc(-c3ccccc3)ccc12`, 220 °C; for `COc1ccc2c(c1)[C@H](c1ccccc1)CN(C)CC2`, 50 to 51 °C.
For `Cn1cccc1CCNC(=O)C(C#N)C(=O)c1nn(-c2ccccc2)c2c1Cc1ccccc1-2` (stereo not drawn) the value was 288 to 291 °C; for `NC(=O)N(O)CC1=CCC(c2ccccc2)CC1` (stereo not drawn), 142 to 143 °C.
For `CC(C)(O)CCOc1c(-c2ccc(S(C)(=O)=O)cc2)cnn(-c2ccc(F)c(F)c2)c1=O` the value was 131 to 133 °C; for `Cc1cc(-c2cc(C(F)(F)F)n3ncc(C(=O)O)c3n2)ccc1C(F)(F)F`, 250 °C.
In turn, `CCOC(=O)c1cn(C)c2nc3cc(N4CCN[C@@H](c5ccccc5)C4)c(F)cc3cc2c1=O` returned a melting point of 221 °C.
For `C1=C(CCC2CCCO2)CCN(Cc2c[nH]c3ncccc23)C1` (stereo not drawn) the value was 70 to 72 °C.
For `Cc1nn(-c2ccc(C#N)c(Cl)c2)c(C)c1Oc1ccc(NC(=O)C(C)(C)C)cn1` the value was 191 to 192 °C.
For `CC(C)(C)OCC1C(=O)C(C)(C)C(=O)N1c1ccc(C#N)c(Cl)c1` (stereo not drawn) the value was 124 to 125 °C; for `O=C(O)c1ccc2c(c1)S(=O)(=O)c1ccccc1-2`, 312 °C.
`COc1ccc(COc2ccc(C(=O)C3=C(O)C(=O)N(c4ccc(C)nn4)C3c3ccc(OC(F)(F)F)cc3)cc2)cc1` (stereo not drawn): the melting point is 206 to 209 °C.
For the molecule `O=C1Cc2cc(Br)ccc2Oc2cc(O)cc(O)c21`, the melting point lay in the range of 112 to 117 °C.
Then `Cc1occc1C(=O)Nc1ccc(Cl)c(C=NN2CCOCC2)c1`, with 121 to 123 °C; and `CCOC(=O)C(CCc1ccccc1)=NO`, with 84 to 85 °C.
For `CNC(=O)[C@H](Cc1ccc(OC)cc1)NC(=O)[C@@H](N)CC(C)C` the value was 128 to 132 °C.
Then `O=[N+]([O-])c1ccc(Cl)cc1NC1Cc2ccccc2C1`, with 108 °C; and `COc1cc(C(N)=O)cc([N+](=O)[O-])c1OC`, with 182 to 185 °C.
In turn, `Cc1cc(C)cc(C(=O)N2CCN(C(=O)CNC3CN4CC3CC4Cc3ccccc3)C(c3ccc(Cl)c(Cl)c3)C2)c1` (stereo not drawn) gave a melting point of 69 to 71 °C.
Then `CCOC(=O)N1CCC(NS(=O)(=O)c2ccc3ccccc3c2)CC1`, with 128 °C; and `COc1cc(Br)c2oc(-c3ccc(OC)c(C(F)(F)F)c3)nc2c1`, with 183 to 185 °C.
Then `CCCCc1oc2ccccc2c1C(=O)NCc1ccc2c(-c3ccc(C(C)(C)C)cc3)c(OCc3nnn[nH]3)ccc2c1`, with 75 to 78 °C.
For `CCOC(=O)c1ccc2c(c1)CCC(Cc1cnc(N)s1)C2` (stereo not drawn), the melting point lay within 150 to 153 °C.
For the molecule `Nc1c(F)c(F)[nH]c(=O)c1F`, the melting point lay within 199 to 201 °C.
Molecule `CCOCc1nc(C(C)(C)O)c(C(=O)O)n1Cc1ccc(-c2ccccc2-c2nnn[nH]2)cc1` showed a melting point of 150 °C.
Molecule `CC[C@@H](C)[C@H](NC(=O)NCCNC(=O)OC(C)(C)C)C(=O)OC` gave a melting point of 86 to 89 °C.
For the molecule `COc1cccc(C2(Cn3ccnc3)CC(CSc3ccc(C)cc3)ON2C)c1` (stereo not drawn), the melting point was in the range of 107 to 108 °C.
For the molecule `Nc1ccc2oc(-c3ccccc3)cc2c1`, the melting point amounted to 156 °C.
Then `CC1(C(=O)c2c[nH]c3ncc(-c4cccc(N5CCOCC5)c4)nc23)CCCCC1`, with 208 to 209 °C; and `CC(CO)n1nc(-c2cnc(N)nc2-c2ccccc2)ccc1=O` (stereo not drawn), with 222 to 223 °C.
Then `O=C(COc1cccc(CCNS(=O)(=O)c2ccc(Br)cc2)c1)Nc1nnn[nH]1`, with 205 to 206 °C; and `O=C(O)c1ccc(C2=NOC(c3cc(Cl)cc(Cl)c3)(C(F)(F)F)C2)cc1` (stereo not drawn), with 237 to 240 °C; and `CCOC(=O)COc1ccc2cnn(C[C@H](C)NC(=O)OCc3ccccc3)c2c1Br`, with 89 to 90 °C.
`O=S(=O)(O)c1ccc2nc(NC3=NCCN3)[nH]c2c1` returned a melting point of more than 360 °C.
Then `OC(CCNCc1ccccc1)(COc1ccc(Cl)cc1)c1ccccc1` (stereo not drawn), with 70 to 71 °C.
For `Cc1ccc(S(=O)(=O)O[C@@H]2CCCN(S(=O)(=O)c3ccc(C)cc3)C2)cc1` the value was 140 to 147 °C; for `Fc1cc(Cl)ccc1-c1ncnc(C(F)F)c1Cl`, 76 to 77 °C; for `CC(C)c1nc(CO)[nH]c1Sc1cc(Cl)cc(Cl)c1`, 191 to 192 °C.
Then `Nc1nc2cc(-c3cccnc3)ccc2c2c1nc(CO)n2CC1CCOCC1`, with 260 to 262 °C; and `COc1nc(C)c(C(C)O)cc1NC(=O)N1CCN(c2cccc(C)c2C)CC1` (stereo not drawn), with 100 to 102 °C.
`O=S(=O)(Oc1ccc2sc(-c3ccc(OCCN4CCCC4)cc3)cc2c1)C(F)(F)F`: the melting point lay within 95 to 99 °C.

The values above are taken from a melting point compilation (Tetko et al.; mined from patent text by program, amines drawn as free bases though some values may be those of a salt).
